# Patent US10413505B1, “Pharmaceutical compositions and methods of using the same” (priority 2017, dated 2019)
# Structures can show the parent of a compound that is named as a salt.
# How the values were obtained:
# Sprague Dawley rats [1] = assay: Example 10 cocaethylene HCl intranasal toxicity, Single-Dose Phase; assay type: in vivo, rat
# Method: Cocaethylene HCl in the vehicle (deionized water) was administered by intranasal instillation once to a group (Group 2) of Sprague Dawley rats at a dose level of 2.1 mg/kg. […] The dose volume was 0.22 mL/kg, divided between the 2 nares, for both groups. Groups 1 and 2 each consisted of 20 animals/sex. Following dose administration, 10 animals/sex/group were euthanized on Study Day 1; the remaining 10 animals/sex/group were euthanized following a 14-day non-dosing (recovery) period. Criteria for evaluation included daily mortality observations, daily clinical observations, detailed physical observations, body weights, food consumption, clinical pathology (hematology, coagulation, serum chemistry, and urinalysis), organ weights, gross pathology, and microscopic examination of select tissues.
# (§1) The vehicle and test article formulations were administered by intranasal instillation into each naris via a syringe equipped with stainless steel-shafted, stainless steel ball-tipped dosing cannula once (Single-Dose Phase) or once daily for 14 consecutive days (Repeat-Dose Phase), through the day prior to the primary necropsy. The same syringe and dosing cannula was used to administer the dose across both nares for a given animal on a given dosing day. The total dose volume administered per dose was split approximately equally across each naris, such that approximately half of the total dose volume was administered into one naris, and the remaining was administered into the other naris. Treatment administration across each naris for an individual animal occurred at approximately the same time. The dose volume for all groups was 0.22 mL/kg. Individual doses were based on the most recently recorded body weights. Adjusted doses became effective the day of collection of the weekly body weights. The first day of dosing was Study Day 0; the first week of dosing was Study Week 0.
# (§2) All animals were observed twice daily, once in the morning and once in the afternoon, for mortality and moribundity.
# (§3) Clinical examinations were performed at the time of dose administration and 1 to 2 hours following dose administration. During the recovery period, the animals were observed once daily. The absence or presence of findings was recorded for individual animals at the scheduled intervals. For the Single-Dose Phase, detailed physical examinations were conducted on all animals within 4 days of receipt, on the day of randomization, and on Study Days 0, 1, 7, and 14. For the Repeat-Dose Phase, detailed physical examinations were conducted on all animals within 4 days of receipt, on the day of randomization, weekly (±2 days) during the study period, and on the day of the scheduled necropsies. Daily observations during the recovery period were not necessary on days when detailed physical examinations were conducted.
# (§4) Individual body weights were recorded within 4 days of receipt, on the day of randomization, Study Day 0 (prior to dosing), weekly (±2 days) during the study period, and on the day prior to the scheduled necropsies (nonfasted). Mean body weights and mean body weight changes were calculated for the corresponding intervals. Final body weights (fasted) were recorded on the day of the scheduled necropsies.
# (§5) Cage food weights were recorded once weekly (±2 days) beginning following randomization and throughout the study period. Food consumption was calculated as g/animal/day for the corresponding body weight intervals.
# (§6) Blood and urine samples for clinical pathology evaluations (hematology, coagulation, serum chemistry, and urinalysis) were collected from all animals assigned to the scheduled necropsies. The animals were fasted overnight prior to blood collection while in metabolism cages for urine collection. Blood was collected from a jugular vein and from the vena cava at the time of necropsy. Blood was collected into tubes containing potassium K2EDTA (hematology), sodium citrate (coagulation), or no anticoagulant (serum chemistry). […]
# Sprague Dawley rats [2] = assay: Example 10 cocaethylene HCl intranasal toxicity, Repeat-Dose Phase; assay type: in vivo, rat
# Method: Cocaethylene hydrochloride in the vehicle was administered by intranasal instillation once daily for 14 days to a group (Group 2) of Sprague Dawley rats at a dosage level of 2.1 mg/kg/day. […] The dose volume was 0.22 mL/kg, divided between the 2 nares, for both groups. Groups 1 and 2 each consisted of 15 animals/sex. Following 14 days of dose administration, 10 animals/sex/group were euthanized; the remaining […] animals/sex/group were euthanized following a 14-day nondosing (recovery) period. Criteria for evaluation included daily mortality observations, daily clinical observations, detailed physical observations, body weights, food consumption, clinical pathology (hematology, coagulation, serum chemistry, and urinalysis), organ weights, gross pathology, and microscopic examination of select tissues.
# as §1, §2, §3, §4, §5, §6
# [3] = 2.1 mg/kg once, intranasal instillation
# [4] = 2.1 mg/kg/day for 14 days, intranasal instillation
structure (smiles),measurement,setting,value
"CCOC(=O)[C@@H]1C2CCC(C[C@@H]1OC(=O)c1ccccc1)N2C (stereo partly drawn) [cocaethylene HCl, cocaethylene hydrochloride]",body weights,Sprague Dawley rats [1]; [3],unaffected
same,clinical observations,Sprague Dawley rats [1]; [3],no test article-related clinical observations
same,food consumption,Sprague Dawley rats [1]; [3],unaffected
same,hematology and coagulation parameters,Sprague Dawley rats [1]; [3],unaffected
same,macroscopic examination at necropsy,Sprague Dawley rats [1]; [3],no test article-related macroscopic findings
same,organ weights,Sprague Dawley rats [1]; [3],unaffected
same,serum chemistry parameters,Sprague Dawley rats [1]; [3],unaffected
same,survival,Sprague Dawley rats [1]; [3],All animals survived
same,urinalysis parameters,Sprague Dawley rats [1]; [3],unaffected
same,microscopic examination (nasal cavity with turbinates),"Sprague Dawley rats [1]; 2.1 mg/kg once, intranasal instillation, also after 14-day recovery",No test article-related microscopic findings
same,pH of the dosing formulation,"Sprague Dawley rats [1]; Single-Dose Phase, 9.6 mg/mL in deionized water, pH meter",2.81
same,tolerability,"Sprague Dawley rats [2]; 2.1 mg/kg once or once daily for 14 days, intranasal instillation",well tolerated
same,body weights,Sprague Dawley rats [2]; [4],unaffected
same,clinical observations,Sprague Dawley rats [2]; [4],no test article-related clinical observations
same,food consumption,Sprague Dawley rats [2]; [4],unaffected
same,hematology and coagulation parameters,Sprague Dawley rats [2]; [4],unaffected
same,macroscopic examination at necropsy,Sprague Dawley rats [2]; [4],no test article-related macroscopic findings
same,organ weights,Sprague Dawley rats [2]; [4],unaffected
same,serum chemistry parameters,Sprague Dawley rats [2]; [4],unaffected
same,survival,Sprague Dawley rats [2]; [4],All animals survived
same,urinalysis parameters,Sprague Dawley rats [2]; [4],unaffected
same,microscopic examination (nasal cavity with turbinates),"Sprague Dawley rats [2]; 2.1 mg/kg/day for 14 days, intranasal instillation, also after 14-day recovery",No test article-related microscopic findings
same,pH of the dosing formulation,"Sprague Dawley rats [2]; Repeat-Dose Phase, 9.6 mg/mL in deionized water, pH meter",2.81
same,no-observed-effect level (NOEL),Sprague Dawley rats [2]; intranasal instillation once or once daily for 14 days,2.1 mg/kg/day
